Laboratory results taken from patent publication US12453722B2, “Maleate of nicotinyl alcohol ether derivative, crystal form thereof, and application thereof” (INSTITUTE OF MATERIA MEDICA, CHINESE ACADEMY OF MEDICAL …, priority 2019, dated 2025).
“And” between values parts separate entries of the source, which are not always exact repeats. Identical values can stand only once. Marks after values point to notes of the source that are not given here. Each block holds one compound with its values, some of them ahead of it.

How the values were obtained:
[1] = tested on: human lung cancer NCI-H460; test: In vivo antitumor effect, human lung cancer NCI-H460 model in NSG mice reconstructed by human immune system; conditions: for Tumor volume X ± SD, Day 1 / Tumor volume X ± SD, Day 20 / Tumor weight (g) X ± SD: NCI-H460, NSG mice with human PBMCs; for TGI %: NCI-H460, TGI=(1-T/C)×100 by tumor weight
Experimental: The in vivo antitumor effects of the compound of Example 1 and the compound of Example 2 as PD-L1 inhibitors were evaluated on the NCI-H460 model of human lung cancer in NSG tumor-bearing mice reconstructed by human immune system. […]
Experimental steps: PBMCs were obtained by isolation of fresh human leukocytes, then inoculated into NSG mice through caudal vein, and each mouse was inoculated with 1×10^7. On the third day. NCI-H460 tumor cells were inoculated into the armpit of mice, and each mouse was inoculated with 1×10^6. After the tumors grew to 100˜300 mm^3, the mice were administered in groups. The mice in the solvent control group were administrated with 0.5% CMC orally every day. […] The compounds to be tested were administered orally once a day. The animals were weighed and killed during treatment. The tumor tissues were stripped, weighed and photographed. Finally, the tumor inhibition rates were calculated to evaluate the intensity of antitumor effect.
(§1) Calculation and statistical method: tumor proliferation inhibition rate TGI (%): TGI=(1-T/C)×100. (T: tumor weight in the treatment group: C: tumor weight in the negative control group). Statistical method: Graphpad was used for data statistical analysis, and One-way ANOVA test was used, * P<0.05, * * P<0.01, * * * P<0.001.

[2] = tested on: mouse colon cancer MC38; test: In vivo antitumor effect, subcutaneous transplanted tumor model of mouse colon cancer MC38; conditions: for Body weight (g) X ± SD, End / Body weight (g) X ± SD, Start / Tumor weight (g) X ± SD: MC38, C57BL/6J mice; for TGI %: MC38, TGI=(1-T/C)×100 by tumor weight
Experimental: The in vivo antitumor effects of the compound of Example 1 and the compound of Example 2 as PD-L1 inhibitors on mouse colon cancer MC38 were evaluated on the subcutaneous transplanted tumor model of mice.
(§2) Experimental steps: the subcultured MC38 tumor strain was ground with a homogenizer, washed twice with sterile normal saline and counted, and the cell concentration of tumor cell suspension was adjusted with normal saline to 9×10^6/ml, 0.2 ml of the cell suspension was inoculated into the right armpit of C57BL/6J mice and the day was recorded as day 0. The next day after inoculation, the animals were randomly divided into groups, weighed and administered. The mice in the solvent control group were administrated with 0.5% CMC orally every day. […] The compounds to be tested were administered orally once a day. The animals were weighed and killed during treatment. The tumor tissues were stripped, weighed and photographed. Finally, the tumor inhibition rates were calculated to evaluate the intensity of antitumor effect.
as §1

[3] = tested on: mouse melanoma B16F10; test: In vivo antitumor effect, subcutaneous transplanted tumor model of mouse melanoma B16F10; conditions: for TGI %: B16F10, TGI=(1-T/C)×100 by tumor weight
Experimental: The in vivo antitumor effects of the compound of Example 1 and the compound of Example 2 as PD-L1 inhibitors on mouse melanoma B16F10 were evaluated on the subcutaneous transplanted tumor model of mice.
as §2, with “B16F10” for “MC38”, “9×10^6/ml.” for “9×10^6/ml,”
as §1, with “group;” for “group:”

[4] = log P (physical and chemical properties); format: physicochemical
[5] = Influencing factor test (stability at high temperature, high humidity, illumination); format: physicochemical
Experimental: When the temperature rose to the top of DSC endothermic peak (about 175° C.), the weight loss was obvious, which was the weight loss caused by the melting decomposition of the sample. The DSC endothermic peak was the decomposition point of the compound of Example 2. 4.
• (1) Physical and chemical properties • Appearance: white solid • Melting point: 174.68° C.
The compound of Example 2 was stable under the conditions of illumination, high temperature and high humidity.

[6] = tested on: pleural mesothelioma (PM); conditions: 25 patients with pleural mesothelioma (PM); cited from earlier work
[7] = 80 × 1 mg/kg, intraperitoneal, B16F10, C57BL/6J mice, 1 mg/kg
[8] = 5 × 14 mg/kg, oral once a day, B16F10, C57BL/6J mice
[9] = 10 × 14 mg/kg, oral once a day, B16F10, C57BL/6J mice
[10] = 2.5 × 14 mg/kg, oral once a day

Compound: O=P1(N(CCCl)CCCl)NCCCO1 (stereo not drawn) [CTX, cyclophosphamide]
Tumor volume X ± SD, Day 1 ([1]; 100 × 1 mg/kg, intraperitoneal): 165.4 ± 22.4
Tumor volume X ± SD, Day 20 ([1]; 100 × 1 mg/kg, intraperitoneal): 556.5 ± 81.1
Tumor weight (g) X ± SD ([1]; 100 × 1 mg/kg, intraperitoneal): 0.90 ± 0.15*** g
TGI % ([1]; 100 × 1 mg/kg, intraperitoneal): 66.9%
Body weight (g) X ± SD, End ([2]; 40 × 1 mg/kg, intraperitoneal): 21.7 ± 1.4 g
Body weight (g) X ± SD, Start ([2]; 40 × 1 mg/kg, intraperitoneal): 18.8 ± 0.9 g
Tumor weight (g) X ± SD ([2]; 40 × 1 mg/kg, intraperitoneal): 1.30 ± 1.44** g
TGI % ([2]; 40 × 1 mg/kg, intraperitoneal): 67%
Body weight (g) X ± SD, End ([2]; 40 × 2 mg/kg, intraperitoneal): 24.5 ± 0.9 g
Body weight (g) X ± SD, Start ([2]; 40 × 2 mg/kg, intraperitoneal): 22.0 ± 0.8 g
Tumor weight (g) X ± SD ([2]; 40 × 2 mg/kg, intraperitoneal): 0.17 ± 0.10** g
TGI % ([2]; 40 × 2 mg/kg, intraperitoneal): 90%
Body weight (g) X ± SD, End [3, 7]: 19.2 ± 0.8 g and 17.5 ± 0.9 g
Body weight (g) X ± SD, Start [3, 7]: 16.94 ± 0.43 g and 16.9 ± 0.8 g
TGI % ([3]; 80 × 1 mg/kg, intraperitoneal, 1 mg/kg): 90% and 70%

logP [4]: 2.4
Appearance ([5]; 60° C., 5 days): off white powder
Melting point (DSC method, ° C.) ([5]; 60° C., 5 days): 118.69 °C
Purity (%) ([5]; 60° C., 5 days): 99.5%
Related substances (%) ([5]; 60° C., 5 days): 0.5%
Appearance ([5]; Illumination, 5 days): transparent bulk
Purity (%) ([5]; Illumination, 5 days): 96.0%
Related substances (%) ([5]; Illumination, 5 days): 4.0%
Stability under illumination conditions ([5]; Illumination, 5 days): unstable
Appearance ([5]; Initial): off white powder
Melting point (DSC method, ° C.) ([5]; Initial): 119.36 °C
Purity (%) ([5]; Initial): 99.5%
Related substances (%) ([5]; Initial): 0.5%
Purity (%) ([5]; RH 92.5%, 5 days): 99.5%
Appearance ([5]; RH 92.5%, 5 days, hydrochloride): colorless viscous liquid
Moisture absorption ([5]; high humidity of RH92.5%, 5 days): serious moisture absorption
Stability under high temperature conditions ([5]; high temperature of 60° C., 5 days): stable
Compound: CC(C)OC(=O)[C@H](CO)NCc1cc(Cl)c(OCc2cccc(-c3ccccc3)c2Br)cc1OCc1cccnc1.Cl.Cl [Example 1, isopropyl (S)-N-[2-(pyridine-3-yl-methoxy)-4-(2-bromo-3-(phenyl)benzyloxy)-5-chlorobenzyl] serinate hydrochloride]
Tumor volume X ± SD, Day 1 ([1]; 15 × 14 mg/kg, oral once a day): 161.9 ± 21.0
Tumor volume X ± SD, Day 20 ([1]; 15 × 14 mg/kg, oral once a day): 1441.4 ± 337.6
Tumor weight (g) X ± SD ([1]; 15 × 14 mg/kg, oral once a day): 2.06 ± 0.22 g
TGI % ([1]; 15 × 14 mg/kg, oral once a day): 24.7%
Tumor weight (g) X ± SD ([2]; 5 × 14 mg/kg, oral once a day): 3.21 ± 0.28*** g
TGI % ([2]; 5 × 14 mg/kg, oral once a day): 18%
Tumor weight (g) X ± SD ([2]; 10 × 14 mg/kg, oral once a day): 2.86 ± 1.36** g
TGI % ([2]; 10 × 14 mg/kg, oral once a day): 27%
Tumor weight (g) X ± SD [3, 8]: 3.11 ± 0.98* g
TGI % ([3]; 5 × 14 mg/kg, oral once a day): 11%
Tumor weight (g) X ± SD [3, 9]: 3.04 ± 0.94** g
TGI % ([3]; 10 × 14 mg/kg, oral once a day): 13%

log P [4]: 3.2
Appearance ([5]; 60° C., 10 days): white
Chiral impurities (%) ([5]; 60° C., 10 days): 0.2%
Melting point (DSC method, ° C.) ([5]; 60° C., 10 days): 174.64 °C
Purity (%) ([5]; 60° C., 10 days): 98.7%
Related substances (%) ([5]; 60° C., 10 days): 1.3%
Appearance ([5]; Illumination, 10 days): white
Chiral impurities (%) ([5]; Illumination, 10 days): 0.2%
Melting point (DSC method, ° C.) ([5]; Illumination, 10 days): 174.60 °C
Purity (%) ([5]; Illumination, 10 days): 98.6%
Related substances (%) ([5]; Illumination, 10 days): 1.4%
Appearance ([5]; Initial): white
Chiral impurities (%) ([5]; Initial): 0.2%
Melting point (DSC method, ° C.) ([5]; Initial): 174.68 °C
Purity (%) ([5]; Initial): 98.7%
Related substances (%) ([5]; Initial): 1.3%
Appearance ([5]; RH 92.5%, 10 days): white
Chiral impurities (%) ([5]; RH 92.5%, 10 days): 0.2%
Melting point (DSC method, ° C.) ([5]; RH 92.5%, 10 days): 174.57 °C
Purity (%) ([5]; RH 92.5%, 10 days): 98.7%
Related substances (%) ([5]; RH 92.5%, 10 days): 1.3%
Stability under illumination, high temperature and high humidity ([5]; illumination, 60° C., RH 92.5%, 10 days): stable
Compound: CC(C)OC(=O)[C@H](CO)NCc1cc(Cl)c(OCc2cccc(-c3ccccc3)c2Br)cc1OCc1cccnc1.O=C(O)/C=C\C(=O)O [Example 2, isopropyl (S)-N-(2-(pyridine-3-yl-methoxy)-4-(2-bromo-3-phenylbenzyloxy)-5-chlorobenzyl) serinate maleate]
Tumor volume X ± SD, Day 1 ([1]; 15 × 14 mg/kg, oral once a day): 166.5 ± 24.5
Tumor volume X ± SD, Day 20 ([1]; 15 × 14 mg/kg, oral once a day): 1405.2 ± 442.9
TGI % ([1]; 15 × 14 mg/kg, oral once a day): 30.6%
Comparison of tumor inhibition rate at the same dosage ([1]; Tumor model NSG NCI-H460): Compound of the Example 2 (maleate) > Compound
Tumor weight (g) X ± SD [2, 10]: 1.13 ± 0.78 g
TGI % [2, 10]: 34%
Tumor weight (g) X ± SD ([2]; 5 × 14 mg/kg, oral once a day): 0.42 ± 0.39*** g
TGI % ([2]; 5 × 14 mg/kg, oral once a day): 75%
Tumor weight (g) X ± SD ([2]; 10 × 14 mg/kg, oral once a day): 0.73 ± 0.54** g
TGI % ([2]; 10 × 14 mg/kg, oral once a day): 57%
Comparison of tumor inhibition rate at the same dosage ([2]; Tumor model MC38): Compound of the Example 2 (maleate) > Compound
Tumor weight (g) X ± SD [3, 8]: 1.39 ± 0.84* g
TGI % ([3]; 5 × 14 mg/kg, oral once a day): 40%
Tumor weight (g) X ± SD [3, 9]: 1.04 ± 0.66** g
TGI % ([3]; 10 × 14 mg/kg, oral once a day): 55%
Comparison of tumor inhibition rate at the same dosage ([3]; Tumor model B16F10): Compound of the Example 2 (maleate) > Compound

Compound: Keytruda: first FDA approved PD-1 monoclonal antibody, from Merck
disease control rate [6]: 76%
overall response rate (ORR) [6]: 28%
